Measurements as given in PMC9415646, “Improving Aqueous Solubility and In Vitro Pharmacokinetic Properties of the 3-Nitroimidazo[1,2-a]pyridine Antileishmanial Pharmacophore” (Pharmaceuticals, 2022).
“And” between values parts separate entries of the source, which are not always exact repeats. Equal values may be shown once. Read-outs that look alike come from different tables or passages of the source.

Assays:
[1] = tested on: T. b. brucei BSF trypomastigotes; test: Antitrypanosomal evaluation on T. b. brucei BSF trypomastigotes (Alamar Blue); format: cell-based; settings: Trypanosoma brucei, trypomastigote blood stream form
Method: The effects of the tested compounds on the growth of T. b. brucei were assessed by Alamar Blue® assay described by Räz et al. T. b. brucei AnTat 1.9 (IMTA, Antwerpen, Belgium) was cultured in MEM with Earle’s salts, supplemented according to the protocol of Baltz et al. with the following modifications: 0.5 mM mercaptoethanol (Sigma Aldrich®, France), 1.5 mM L-cysteine (Sigma Aldrich®), 0.05 mM bathocuproïne sulfate (Sigma Aldrich®) and 20% heat-inactivated horse serum (Gibco®, France), at 37 °C and 5% CO2. They were incubated at an average density of 2000 parasites/100 µL in sterile 96-wells plates (Fisher®, France) with various concentrations of compounds dissolved in DMSO, in duplicate. Appropriate controls suramin, treated with sterile water, and fexinidazole, treated with DMSO on sterile water (reference drugs purchased from Sigma Aldrich, France and Fluorochem, UK) were added to each set of experiments. After a 69 h incubation period at 37 °C, 10 µL of the viability marker Alamar Blue® (Fisher, France) were then added to each well, and the plates were incubated for 5 h. The plates were read in a ENSPIRE microplate reader (PerkinElmer, Waltham, MA, USA) using an excitation wavelength of 530 nm and an emission wavelength of 590 nm. […] EC50 were calculated by nonlinear regression analysis processed on dose-response curves, using GraphPad Prism software (USA). EC50 values were calculated from three separate experiments.

[2] = Parallel artificial membrane permeability assay (PAMPA); format: in vitro ADME; settings: for Papp at 4 h, 100 µM: PAMPA, pH 7.4, read-out: PAMPA GIT at pH 7.4 Pe
[3] = target: T1, Albumin from human plasma (Homo sapiens, UniProt P02768); test: Plasma protein (albumin) binding; format: in vitro ADME
T1 construct: from tissue; host or cells: plasma
Method: Plasma doped with the tested compound was incubated at 37 °C in triplicate in one of the compartments of the insert, the other compartment containing a phosphate buffer solution at pH 7.2. After stirring for 4 h at 300 rpm, a 25 μL aliquot of each compartment was taken and diluted; the dilution solution was adapted so as to obtain an identical matrix for all the compartments after dilution. Parallel, reprocessing of a plasma doped but not incubated was used to assess recovery. The LC-MS used for this study was a Waters® Acquity I-Class/Xevo TQD, equipped with a Waters® Acquity BEH C18 column, 50 × 2.1 mm, […]. The mobile phases were (A) ammonium acetate 10 mM and (B) acetonitrile with 0.1% formic acid. The injection volume was 1 µL and the flow rate 600 µL/min. Chromatographic analysis, total duration of 4 min, was performed along the following gradient: 0 < t < 0.2 min, 2% (B); 0.2 < t < 2 min, linear increase to 98% (B); 2 < t < 2.5 min, 98% (B); 2.5 < t < 2.6 min, linear decrease to 2% (B); 2.6 < t < 4 min, 2% (B). Carbamazepine, oxazepam, warfarin and diclofenac were used as reference drugs and propranolol as internal standard. The unbound fraction (fu) was calculated according to the following formula: fu=APlasma, 4h−APBS,4h/APlasma, 4h×100 . The percentage of recovery was calculated according to the following formula: % Recovery=(VPBS×APBS,4h)+(VPlasma×APlasma,4h)/(VPlasma×APlasma,0h) where A is the ratio of the area under peak of the studied molecule and the area under peak of the internal standard (propranolol 200 nM). V is the volume of solution present in the compartments (VPBS = 350 µL and Vplasma = 200 µL).

[4] = tested on: L. infantum axenic amastigotes; parameters: method as in PMID 24080103, PMID 30655943; settings: previously identified hit compounds; cited from earlier work
HepG2 cell line = tested on: HepG2 cell line; parameters: method as in PMID 24080103, PMID 30655943; settings: previously identified hit compounds; cited from earlier work
THP1 cell line = tested on: THP1 cell line; parameters: method as in PMID 24080103, PMID 30655943; settings: previously identified hit compounds; cited from earlier work
[5] = tested on: T. b. brucei BSF trypomastigotes; parameters: method as in PMID 30655943; settings: previously evaluated hit compounds; cited from earlier work

T1 sequence (P02768 25-609): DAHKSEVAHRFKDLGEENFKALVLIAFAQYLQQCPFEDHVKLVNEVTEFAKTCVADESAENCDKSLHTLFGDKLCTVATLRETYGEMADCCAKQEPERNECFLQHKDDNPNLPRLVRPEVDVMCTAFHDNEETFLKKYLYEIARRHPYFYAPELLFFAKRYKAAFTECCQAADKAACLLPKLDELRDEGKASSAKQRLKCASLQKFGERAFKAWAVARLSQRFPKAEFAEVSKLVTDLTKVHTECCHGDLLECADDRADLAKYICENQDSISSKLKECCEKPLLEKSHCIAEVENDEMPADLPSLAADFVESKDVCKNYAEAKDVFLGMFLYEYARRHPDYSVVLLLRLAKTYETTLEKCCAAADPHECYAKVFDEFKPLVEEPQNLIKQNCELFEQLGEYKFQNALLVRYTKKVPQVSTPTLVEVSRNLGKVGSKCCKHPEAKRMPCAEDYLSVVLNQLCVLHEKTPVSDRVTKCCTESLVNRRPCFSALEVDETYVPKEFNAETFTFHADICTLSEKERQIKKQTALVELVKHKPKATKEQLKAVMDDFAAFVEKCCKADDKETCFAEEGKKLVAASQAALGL

Row | Structure (SMILES) | EC50 [1] [µM] | PAMPA GIT at pH 7.4 Pe [2] [nm/s] | Papp at 4 h, 100 µM [2] [×10⁻⁶ cm/s] | Albumin Binding [3] | EC50 [4] [µM] | CC50 (HepG2 cell line) [µM] | CC50 (THP1 cell line) [µM] | EC50 [5] [µM]
1 | CSc1ccc(OCc2ncc([N+](=O)[O-])n2C)cc1 [Fexinidazole, reference compound] | 1.4 ± 0.5 |  |  |  |  |  |  | 
2 | O=[N+]([O-])c1c(CS(=O)(=O)c2ccc(O)cc2)nc2c(Sc3ccc(Cl)cc3)cc(Cl)cn12 [Compound 3a, 4-{[(6-Chloro-8-[(4-Chlorophenyl)thio]-3-Nitroimidazo[1,2-a]pyridin-2-yl)methyl]sulfonyl}phenol] | 0.78 ± 0.05 |  |  |  |  |  |  | 
3 | O=[N+]([O-])c1c(CS(=O)(=O)c2ccccc2)nc2c(Br)cc(Cl)cn12 [Hit A, 8-Bromo-6-chloro-3-nitro-2-(phenylsulfonylmethyl)imidazo[1,2-a]pyridine, reference compound] |  | 173.2 | 17.3 ± 3.88 | 96.50% | 16.4 ± 1.3 | > 15.6 | > 100 | 1.4 ± 0.4
4 | O=[N+]([O-])c1c(CS(=O)(=O)CCC(F)(F)F)nc2c(Sc3ccc(Cl)cc3)cc(Cl)cn12 [Compound 3i, 6-Chloro-8-[(4-Chlorophenyl)thio]-3-Nitro-2-[(3,3,3-Trifluoropropylsulfonyl)methyl]imidazo[1,2-a]pyridine] |  | 6.3 | 0.63 ± 0.08 | 99.8% and 99.76% |  |  |  | 
5 | O=[N+]([O-])c1c(CS(=O)(=O)CCC(F)(F)F)nc2c(-c3ccncc3)cc(Cl)cn12 [Compound 7, 6-Chloro-3-Nitro-8-(Pyridin-4-yl)-2-[(3,3,3-Trifluoropropylsulfonyl)methyl]imidazo[1,2-a]pyridine] |  |  | 31.4 ± 8.72 | 88.6% and 88.65% |  |  |  | 
6 | O=[N+]([O-])c1c(CS(=O)(=O)c2ccc(C(F)(F)F)cc2)nc2c(Sc3ccc(Cl)cc3)cc(Cl)cn12 [Compound 3d, 6-Chloro-8-[(4-Chlorophenyl)thio]-3-Nitro-2-[(4-Trifluoromethylphenylsulfonyl)methyl]imidazo[1,2-a]pyridine] | 0.89 ± 0.07 |  |  |  |  |  |  | 
7 | O=[N+]([O-])c1c(CS(=O)(=O)c2ccc(F)cc2)nc2c(Sc3ccc(Cl)cc3)cc(Cl)cn12 [Compound 3c, 6-Chloro-8-[(4-Chlorophenyl)thio]-2-[(4-Fluorophenylsulfonyl)methyl]-3-Nitroimidazo[1,2-a]pyridine] | 0.57 ± 0.02 |  |  |  |  |  |  | 
8 | O=[N+]([O-])c1c(CS(=O)(=O)c2ccccc2)nc2c(Sc3ccc(Cl)cc3)cc(Cl)cn12 [Hit B, reference compound] |  | 4.0 | 0.4 ± 0.06 | 99.95% | 1.7 ± 0.3 | > 100 | > 62.5 | 0.95 ± 0.05
